From PubChem BioAssay AID179 (DTP/NCI, 2004)
Calls of active or inactive are those of the source.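 How the source made its calls: active means compounds giving half or more protection of infected cells from virus-caused growth loss, again on retest; inactive means the rest.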

Tested on: CEM cells HIV-1 protection, formazan growth assay
Test: NCI AIDS Antiviral Assay
Conditions: for IC50: measured here: growth of uninfected CEM cells
Procedure, shortened: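 Category rules: moderately active means at least 50% protection on retest, and confirmed active means 100% protection reproducibly. The underlying data came from a formazan growth assay in HIV-1-infected CEM cells.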

Compound	EC50 [µM]	IC50 [µM]	outcome
COC(=O)C1(C(=O)OC)Cc2ccc(C)cc2C2=C1C(=O)c1ccccc1C2=O	> 200	5.13	–
CNC(=S)NC(=S)N(C)C	–	–	inactive
Cc1cc(O)c(C(C)C)cc1C1(c2cc(C(C)C)c(O)cc2C)OS(=O)(=O)c2ccccc21	–	–	inactive
COc1cc2nc(Sc3c([N+](=O)[O-])ncn3C)[nH]c2cc1OC	> 389	5.5	–
CC1C2=CC=C(O2)C(C)(C)C2=CC=C(O2)C(C)(C)C2=CC=C(O2)C(C)(C)C2=CC=C1O2	–	–	inactive
COc1ccc(NS(=O)c2c(C)cc(C)cc2C)cc1 (stereo not drawn)	> 200	12	–
O=C(O)c1ccc(S(=O)(=O)c2ccccc2)c([N+](=O)[O-])c1	> 2510	288	–
O=c1[nH]c2cc([N+](=O)[O-])ccc2nc1/C(=N/Nc1ccccc1)C(O)c1ccc(Cl)cc1Cl (stereo not drawn)	> 269	148	–
CC(C)N=C(NC#N)NS(=O)(=O)c1cnccc1Nc1ccc(Cl)cc1	> 200	> 200	–
COc1cccc(C=NC23CC4CC(CC(C4)C2)C3)c1	> 69.2	> 69.2	–
N#CC1(C#N)OC12CCS(=O)(=O)c1ccccc12 (stereo not drawn)	> 501	89.1	–
CCOC(=O)C1(C#N)OC(=O)c2cnccc21 (stereo not drawn)	> 200	> 200	–
CC1(C)CCNc2ccccc2S1	> 229	> 229	–
COC(=O)N1[C@@H]2C=CC=CC=C2[C@@H](OC)N1C(=O)OC	> 158	89.1	–
CCOC(=O)C1=c2[nH]c3cccc4cccc(c43)n2C(=O)CC1c1ccccc1 (stereo not drawn)	> 100	75.9	–
COC1O[C@H]2[C@H]3[C@@H]1[C@@H](OS(=O)(=O)c1ccc(C)cc1)C(=O)N3C[C@H]2O (stereo partly drawn)	18.2	141	–
O=[N+]([O-])c1cc([As](=O)(O)O)ccc1F	> 200	> 200	–
O=C1C=CC(=O)c2c1ccc1c3ccccc3n(Cc3ccc([N+](=O)[O-])cc3)c21	> 200	2.82	–
COCc1cn(C2CC(F)C(CO)O2)c(=O)nc1N (stereo not drawn)	> 457	> 457	–
CC1=C(\C=C/C(C)=C/C=C/C(C)=C/C=N/N=C/C=C(C)\C=C\C=C(C)/C=C/C2=C(C)CCCC2(C)C)C(C)(C)CCC1	> 200	45.7	–
O=Nc1c(-c2ccccc2)nc2ncccn12	> 200	2.14	–
NCCCN(CCCN(C(=O)Nc1ccccc1)c1ccccc1)C(=O)Nc1ccccc1	> 200	55	–
COC(=O)[C@@]1(C(C)CC(=O)O)CCCCC1=O (stereo partly drawn)	> 1020	214	–

Compound	EC50 [µM]	IC50 [µM]	outcome
Cc1cn(C2CC(N=[N+]=[N-])C(COP(=O)(OCC(=O)C(C)(C)C)OCC(=O)C(C)(C)C)O2)c(=O)[nH]c1=O (stereo not drawn)	0.0011	2	–
O=C1CSC(c2ccccc2O)N1c1ccc(-c2ccc(-n3c(-c4ccccc4)nc4ccccc4c3=O)cc2)cc1 (stereo not drawn)	> 200	12	–
Clc1cccc(-c2sc(-c3cccs3)cc2Cc2cccs2)c1	> 200	141	–
COC1C(O)CC(OC2CC(OC3CC(O[C@@H]4C(=O)c5c(cc6cc(OC7CC(OC8CC(O)C(O)C(C)O8)C(O)C(C)O7)c(C)c(O)c6c5O)C[C@H]4[C@H](OC)C(=O)[C@@H](O)[C@@H](C)O)OC(C)C3O)OC(C)C2O)OC1C (stereo partly drawn)	> 0.166	0.011	–
CCOC(=O)C(N=O)C(=O)c1ccccc1 (stereo not drawn)	–	–	inactive
CSc1ccc2nncc(SC)c2c1	> 158	57.5	–
CC(C)CC1=C(C(=O)c2ccoc2)CC(C)C1 (stereo not drawn)	> 200	> 200	–
CCOC(=O)CCN1C(=O)c2ccc(NC(=O)C(=O)O)cc2S1(=O)=O	> 200	> 200	–
COC(=O)c1c(C)oc2ccc(OC(C)=O)cc12	–	–	inactive
COc1cc(N=CNc2cc(OC)n[n+]([O-])c2)c[n+]([O-])n1	> 224	> 224	–
S=C1NC2=C(CSC/C2=C\c2ccccc2)C(c2ccccc2)N1 (stereo not drawn)	> 200	37.2	–
O=C(CI)Nc1ccc2oc(=O)c(C(=O)O)cc2c1	> 214	23.4	–
O=C(c1ccccc1)c1ccc(COc2ccc(C(c3c(O)c4ccccc4oc3=O)c3c(O)c4ccccc4oc3=O)cc2)cc1	> 200	35.5	–
Clc1cc2nnn(C3CCCO3)c2cc1Cl (stereo not drawn)	> 200	123	–
O=C(Nc1ccc(Cl)cc1)Nc1ccc(Cl)c(C(F)(F)F)c1	> 200	2.69	–
O=C(OCCc1ccccc1)c1ccc2cc(O)c(O)cc2c1	> 31.6	12.9	–
S=c1[nH]c(=S)c2[nH]cnc2[nH]1	> 200	85.1	–
O=C(O)C1CC2C=CCC(C2)C1 (stereo not drawn)	–	–	inactive
COc1cc2c(c3oc(=O)cc(C)c13)[C@@H](OC(=O)C13CCC(C)(C(=O)O1)C3(C)C)[C@@H](OC(=O)C13CCC(C)(C(=O)O1)C3(C)C)C(C)(C)O2 (stereo partly drawn)	0.324	> 200	–
CCCCC[C@@H]1CCCC2C1CC[C@@H](CCCCCI)N2C(=O)OCC(Cl)(Cl)Cl (stereo partly drawn)	–	–	inactive
CCN(CC)/C(=C\Cl)Nc1ccccn1	> 759	117	–
Cn1c(=O)c2c(nc3n2CC(=O)N3CCCCl)n(C)c1=O	85.1	> 200	–
